Results reported in the supplement of paper PMC10733146.

Experiments:
Experiment in all cases: viability relative to DMSO control (fraction); higher = less drug effect (more viable cells)
Conditions in all cases: 48 h
Pralatrexate = compound: C#CCC(Cc1cnc2nc(N)nc(N)c2n1)c1ccc(C(=O)N[C@@H](CCC(=O)O)C(=O)O)cc1 [Pralatrexate]
How it was run: (§1)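 Viability is given as CellTiter-Glo luminescence relative to the median of 16 inner DMSO wells. Fresh or cryopreserved primary mononuclear tumour cells from blood, bone marrow (both Ficoll-isolated) or processed lymph node were plated at 4 × 10^4 cells per well in 384-well plates against five pre-plated compound concentrations, one well each. Incubation lasted 48 h at 37 °C and 5% CO2 in RPMI-1640 with penicillin/streptomycin, L-glutamine and human serum.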

ONO-4059 = compound: CC#CC(=O)N1CC[C@@H](n2c(=O)n(-c3ccc(Oc4ccccc4)cc3)c3c(N)ncnc32)C1 [ONO-4059]
How it was run: as §1

[1] = compound: CC(C)(C)OC(=O)Nc1ccc(-c2cc(C(=O)NCCCCCCC(=O)NO)no2)cc1
How it was run: as §1

Vemurafenib = compound: CCCS(=O)(=O)Nc1ccc(F)c(C(=O)c2c[nH]c3ncc(-c4ccc(Cl)cc4)cc23)c1F [Vemurafenib]
How it was run: as §1

ERK5-IN-1 = compound: CCOc1cc(C(=O)N2CCC(N3CCN(C)CC3)CC2)ccc1Nc1ncc2c(n1)N(C1CCCC1)c1ccccc1C(=O)N2C [ERK5-IN-1]
How it was run: as §1

BI6727 = compound: CC[C@@H]1C(=O)N(C)c2cnc(Nc3ccc(C(=O)N[C@H]4CC[C@H](N5CCN(CC6CC6)CC5)CC4)cc3OC)nc2N1C(C)C [BI6727]
How it was run: as §1

Vincristine = compound: CC[C@]1(O)C[C@H]2CN(CCc3c([nH]c4ccccc34)[C@@](C(=O)OC)(c3cc4c(cc3OC)N(C=O)[C@H]3[C@@](O)(C(=O)OC)[C@H](OC(C)=O)[C@]5(CC)C=CCN6CC[C@]43[C@@H]65)C2)C1 [Vincristine]
How it was run: as §1

Ribociclib = compound: CN(C)C(=O)c1cc2cnc(Nc3ccc(N4CCNCC4)cn3)nc2n1C1CCCC1 [Ribociclib]
How it was run: as §1

Obatoclax mesylate = compound: COC1=CC(c2cc3ccccc3[nH]2)=N/C1=C\c1[nH]c(C)cc1C [Obatoclax mesylate]
How it was run: as §1

MLN-120B = compound: COc1c(Cl)cc2c([nH]c3cnccc32)c1NC(=O)c1cccnc1C [MLN-120B]
How it was run: as §1

Panobinostat = compound: Cc1[nH]c2ccccc2c1CCNCc1ccc(/C=C/C(=O)NO)cc1 [Panobinostat]
How it was run: as §1

AZD7762 = compound: NC(=O)Nc1cc(-c2cccc(F)c2)sc1C(=O)N[C@H]1CCCNC1 [AZD7762]
How it was run: as §1

Cladribine = compound: Nc1nc(Cl)nc2c1ncn2[C@H]1C[C@H](O)[C@@H](CO)O1 [Cladribine]
How it was run: as §1

Vorinostat = compound: O=C(CCCCCCC(=O)Nc1ccccc1)NO [Vorinostat]
How it was run: as §1

TMP269 = compound: O=C(NCC1(c2nc(-c3ccccc3)cs2)CCOCC1)c1cccc(-c2noc(C(F)(F)F)n2)c1 [TMP269]
How it was run: as §1

Pentostatin = compound: OC[C@H]1O[C@@H](n2cnc3c2N=CNC[C@H]3O)C[C@@H]1O [Pentostatin]
How it was run: as §1

Imatinib = compound: Cc1ccc(NC(=O)c2ccc(CN3CCN(C)CC3)cc2)cc1Nc1nccc(-c2cccnc2)n1 [Imatinib]
How it was run: as §1

For primary DLBCL patient cells (S076), the viability (Pralatrexate; 0.024 µM) was 1.01, the viability (Pralatrexate; 0.12 µM) was 0.756 and the viability (Pralatrexate; 0.6 µM) was 0.838. It also gave a viability (Pralatrexate; 3 µM) of 0.978, a viability (Pralatrexate; 15 µM) of 0.843 and a viability (ONO-4059; 0.0016 µM) of 1.03. The viability (ONO-4059; 0.008 µM) was 1.04, the viability (ONO-4059; 0.04 µM) was 1.08 and the viability (ONO-4059; 0.2 µM) was 0.992. The viability (ONO-4059; 1 µM) was 0.929, the viability ([1]; 0.024 µM) was 1.05 and the viability ([1]; 0.12 µM) was 0.81. The viability ([1]; 0.6 µM) was 0.628, the viability ([1]; 3 µM) was 0.313 and the viability ([1]; 15 µM) was 0.119. For the same test system, the viability (Vemurafenib; 0.024 µM) was 0.8, the viability (Vemurafenib; 0.12 µM) was 0.988 and the viability (Vemurafenib; 0.6 µM) was 0.83. For the same test system, the viability (Vemurafenib; 3 µM) was 1.04, the viability (Vemurafenib; 15 µM) was 1.05 and the viability (ERK5-IN-1; 0.024 µM) was 1.09. The viability (ERK5-IN-1; 0.12 µM) was 1, the viability (ERK5-IN-1; 0.6 µM) was 0.876 and the viability (ERK5-IN-1; 3 µM) was 0.755. It also gave a viability (ERK5-IN-1; 15 µM) of 0.436, a viability (BI6727; 0.024 µM) of 1.07 and a viability (BI6727; 0.12 µM) of 0.971. For the same test system, the viability (BI6727; 0.6 µM) was 0.881, the viability (BI6727; 3 µM) was 0.614 and the viability (BI6727; 15 µM) was 0.372. For the same test system, the viability (Vincristine; 0.016 µM) was 0.726, the viability (Vincristine; 0.08 µM) was 0.561 and the viability (Vincristine; 0.4 µM) was 0.519. It also gave a viability (Vincristine; 2 µM) of 0.44, a viability (Vincristine; 10 µM) of 0.363 and a viability (Ribociclib; 0.024 µM) of 1.25. For the same test system, the viability (Ribociclib; 0.12 µM) was 1.2, the viability (Ribociclib; 0.6 µM) was 1.11 and the viability (Ribociclib; 3 µM) was 0.986. The viability (Ribociclib; 15 µM) was 0.586, the viability (Obatoclax mesylate; 0.024 µM) was 0.922 and the viability (Obatoclax mesylate; 0.12 µM) was 1.14. For the same test system, the viability (Obatoclax mesylate; 0.6 µM) was 0.746, the viability (Obatoclax mesylate; 3 µM) was 0.541 and the viability (Obatoclax mesylate; 15 µM) was 0.173. It also gave a viability (MLN-120B; 0.024 µM) of 1.07, a viability (MLN-120B; 0.12 µM) of 1.07 and a viability (MLN-120B; 0.6 µM) of 1.05. For the same test system, the viability (MLN-120B; 3 µM) was 0.997, the viability (MLN-120B; 15 µM) was 0.861 and the viability (Panobinostat; 0.00064 µM) was 1.05. For the same test system, the viability (Panobinostat; 0.0032 µM) was 0.78, the viability (Panobinostat; 0.016 µM) was 0.285 and the viability (Panobinostat; 0.08 µM) was 0.203. It also gave a viability (Panobinostat; 0.4 µM) of 0.169, a viability (AZD7762; 0.024 µM) of 0.679 and a viability (AZD7762; 0.12 µM) of 0.69. It also gave a viability (AZD7762; 0.6 µM) of 0.55, a viability (AZD7762; 3 µM) of 0.481 and a viability (AZD7762; 15 µM) of 0.348. The viability (Cladribine; 0.024 µM) was 0.475, the viability (Cladribine; 0.12 µM) was 0.331 and the viability (Cladribine; 0.6 µM) was 0.138. The viability (Cladribine; 3 µM) was 0.0919, the viability (Cladribine; 15 µM) was 0.0759 and the viability (Vorinostat; 0.016 µM) was 1. It also gave a viability (Vorinostat; 0.08 µM) of 0.884, a viability (Vorinostat; 0.4 µM) of 0.734 and a viability (Vorinostat; 2 µM) of 0.417. It also gave a viability (Vorinostat; 10 µM) of 0.198, a viability (TMP269; 0.024 µM) of 1.17 and a viability (TMP269; 0.12 µM) of 1.07. The viability (TMP269; 0.6 µM) was 1.15, the viability (TMP269; 3 µM) was 0.94 and the viability (TMP269; 15 µM) was 0.959. The viability (Pentostatin; 0.03 µM) was 1.04, the viability (Pentostatin; 0.15 µM) was 0.808 and the viability (Pentostatin; 0.75 µM) was 0.824. It also gave a viability (Pentostatin; 3.75 µM) of 0.6 and a viability (Pentostatin; 18.76 µM) of 0.618.
With primary AML patient cells (S044) the viability (Imatinib; 0.08 µM) was 1.06, the viability (Imatinib; 0.4 µM) was 1 and the viability (Imatinib; 2 µM) was 0.924. It also gave a viability (Imatinib; 10 µM) of 0.823.
With primary AML patient cells (S054) the viability (Imatinib; 0.016 µM) was 1.05, the viability (Imatinib; 0.08 µM) was 1.05 and the viability (Imatinib; 0.4 µM) was 1. The viability (Imatinib; 2 µM) was 0.962 and the viability (Imatinib; 10 µM) was 0.807.
